Test results from PubChem BioAssay AID540323 (Johns Hopkins Ion Channel Center, 2011).
Calls of active or inactive are those of the source.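 The calls were made as follows: active = peak hERG channel inhibition above 30% at some tested dose, together with a fitted dose response curve; inactive = no hERG inhibition at any dose, or no curve.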

What follows are molecules tested against Voltage-gated inwardly rectifying potassium channel KCNH2 (Homo sapiens) (UniProt Q12809) (assay: hERG channel inhibition, SAR follow-up, selectivity assay for KCNK9 inhibitor project, FluxOR Tl flux, hERG cells, CRC 2 (AID 540323)). Details: hERG-expressing cells, FluxOR thallium flux fluorescence; at 30 µM (top of the series); test wells contain dofetilide at its IC70.
Voltage-gated inwardly rectifying potassium channel KCNH2 (Homo sapiens), sequence (Q12809 whole entry, looked up): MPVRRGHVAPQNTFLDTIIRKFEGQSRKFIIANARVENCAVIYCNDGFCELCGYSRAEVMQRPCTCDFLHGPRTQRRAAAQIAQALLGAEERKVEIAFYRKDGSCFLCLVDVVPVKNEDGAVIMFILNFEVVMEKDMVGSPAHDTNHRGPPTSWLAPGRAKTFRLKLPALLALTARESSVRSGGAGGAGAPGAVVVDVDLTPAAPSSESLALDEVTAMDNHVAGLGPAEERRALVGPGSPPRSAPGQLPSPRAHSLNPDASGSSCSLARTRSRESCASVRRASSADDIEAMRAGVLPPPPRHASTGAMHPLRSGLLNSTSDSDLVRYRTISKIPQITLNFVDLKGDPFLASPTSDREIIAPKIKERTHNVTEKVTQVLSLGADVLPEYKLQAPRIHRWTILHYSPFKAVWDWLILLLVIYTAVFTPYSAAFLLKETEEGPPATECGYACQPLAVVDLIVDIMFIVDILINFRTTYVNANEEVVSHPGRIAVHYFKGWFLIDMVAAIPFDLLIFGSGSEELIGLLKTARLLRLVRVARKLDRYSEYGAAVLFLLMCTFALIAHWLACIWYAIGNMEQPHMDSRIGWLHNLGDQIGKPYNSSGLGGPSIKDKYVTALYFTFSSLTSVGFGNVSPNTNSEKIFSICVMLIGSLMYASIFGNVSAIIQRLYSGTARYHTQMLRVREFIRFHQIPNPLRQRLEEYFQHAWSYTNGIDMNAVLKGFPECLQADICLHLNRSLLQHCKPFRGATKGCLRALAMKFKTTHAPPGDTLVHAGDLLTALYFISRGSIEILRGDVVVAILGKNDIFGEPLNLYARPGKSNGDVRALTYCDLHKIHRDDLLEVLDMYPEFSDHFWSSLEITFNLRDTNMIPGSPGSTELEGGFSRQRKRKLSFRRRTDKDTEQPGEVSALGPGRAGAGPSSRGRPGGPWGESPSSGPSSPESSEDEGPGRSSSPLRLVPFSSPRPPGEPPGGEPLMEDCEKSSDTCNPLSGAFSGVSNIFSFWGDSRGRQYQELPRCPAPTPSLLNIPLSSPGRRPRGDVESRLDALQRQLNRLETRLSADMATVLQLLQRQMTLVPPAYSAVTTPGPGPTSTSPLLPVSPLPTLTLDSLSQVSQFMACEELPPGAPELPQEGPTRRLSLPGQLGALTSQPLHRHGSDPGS

| SMILES | fluorescence ratio, lower = inhibition |
| --- | --- |
| CCOc1ccccc1NC(=O)c1cccc(NC(=O)c2ccc(C)cc2)c1 | inactive |
| CCOc1ccccc1NC(=O)c1cccc(NC(=O)C2CCCC2)c1 | inactive |
| Cc1cccc(C(=O)Nc2cccc(NC(=O)c3ccco3)c2)c1 | inactive |
| COc1ccccc1C(=O)Nc1cccc(NC(=O)c2ccccc2)c1 | inactive |
| COc1ccccc1C(=O)Nc1cccc(NC(=O)c2ccccc2OC)c1 | inactive |
| Cc1cccc(S(=O)(=O)Nc2cccc(NC(=O)c3ccccc3)c2)c1 | inactive |
| COc1ccccc1C(=O)Nc1cccc(NC(=O)c2ccccc2C(C)C)c1 | inactive |
| COc1ccccc1NC(=O)c1cccc(NC(=O)c2ccccc2OC)c1 | inactive |
| CCOc1ccccc1NC(=O)c1cccc(NC(=O)c2ccccc2Cl)c1 | inactive |
| CCOc1ccccc1NC(=O)c1cccc(C(=O)NC2CCCC2)c1 | inactive |
| S=c1[nH]nc(-c2ccco2)n1CC1CCCCC1 | inactive |
| CC(C1CC2CCC1C2)n1c(-c2ccc(Cl)cc2)n[nH]c1=S (centres undefined) | inactive |
| CCOc1ccccc1NC(=O)c1cccc(NC(=O)c2ccc(OC)cc2)c1 | inactive |
| CCOc1ccccc1NC(=O)c1cccc(NC(=O)C2CCCCC2)c1 | inactive |
| CCOc1ccccc1NC(=O)c1cccc(NC(=O)c2ccc(C(F)(F)F)cc2)c1 | inactive |
| O=C(Nc1cccc(NC(=O)C2CCCCC2)c1)c1ccccc1 | inactive |
| CC(C1CC2CCC1C2)n1c(C2CCOC2)n[nH]c1=S (centres undefined) | inactive |
| CCOc1ccccc1NC(=O)c1cccc(NC(=O)c2cccc(C(F)(F)F)c2)c1 | inactive |
| COc1ccccc1NC(=O)c1cccc(NC(=O)c2ccccc2C(F)(F)F)c1 | inactive |
| O=C(Nc1cccc(NC(=O)c2ccco2)c1)c1ccccc1 | inactive |
| O=C(Nc1cccc(NC(=O)c2ccccc2C(F)(F)F)c1)c1ccccc1 | inactive |
| O=C(Nc1cccc(NC(=O)c2ccsc2)c1)c1ccccc1 | inactive |
| CC(c1ccco1)n1c(-c2ccoc2)n[nH]c1=S (centres undefined) | inactive |

| SMILES | fluorescence ratio, lower = inhibition |
| --- | --- |
| COc1ccccc1C(=O)Nc1cccc(NC(=O)c2ccccc2C)c1 | inactive |
| Cc1ccccc1C(=O)Nc1cccc(NC(=O)c2ccccc2)c1 | inactive |
| CCOc1ccccc1NC(=O)c1cccc(NC(=O)CC2CCCCC2)c1 | inactive |
| CCOc1ccccc1C(=O)Nc1cccc(NC(=O)c2ccccc2OC)c1 | inactive |
| Cc1cccc(C(=O)Nc2ccccc2NC(=O)c2ccccc2)c1 | inactive |
| CC(C)(C)c1ccc(C(=O)Nc2cccc(NC(=O)c3ccccc3)c2)cc1 | inactive |
| COc1ccccc1-c1n[nH]c(=S)n1C(C)C1CC2CCC1C2 (centres undefined) | inactive |
| CCOc1ccccc1NC(=O)c1cccc(NC(=O)c2ccccc2C(F)(F)F)c1 | inactive |
| CCOc1ccccc1NC(=O)c1cccc(NC(=O)c2cccc(Cl)c2)c1 | inactive |
| Cc1cccc(C(=O)Nc2cccc(NC(=O)c3cccs3)c2)c1 | inactive |
| O=C(Nc1cccc(NC(=O)c2cccc(F)c2)c1)c1ccccc1 | inactive |
| CCOc1ccccc1NC(=O)c1cccc(NC(=O)c2cccc(OC)c2)c1 | inactive |
| CCOc1ccccc1NC(=O)c1cccc(NC(=O)C2CCOC2)c1 (centres undefined) | inactive |
| Cc1cccc(C(=O)Nc2cccc(NC(=O)c3ccc(N(C)C)cc3)c2)c1 | inactive |
| CCOc1ccccc1NC(=O)c1cccc(NC(=O)C2CC2)c1 | inactive |
| O=C(Nc1cccc(NC(=O)c2ccccc2Cl)c1)c1ccccc1 | inactive |
| COc1cccc(C(=O)Nc2cccc(NC(=O)c3ccccc3)c2)c1 | inactive |
| COc1cccc(-c2n[nH]c(=S)n2C(C)C2CC3CCC2C3)c1 (centres undefined) | inactive |
| CCOc1ccccc1NC(=O)c1cccc(NC(=O)CC2CCCC2)c1 | inactive |
| CCOc1ccccc1C(=O)Nc1cccc(NC(=O)c2ccccc2C(F)(F)F)c1 | inactive |
| CC(C1CC2CCC1C2)n1c(-c2cccc(Cl)c2)n[nH]c1=S (centres undefined) | inactive |
| Cc1cccc(C(=O)Nc2cccc(NC(=O)c3ccncc3)c2)c1 | inactive |
| O=C(Nc1cccc(NC(=O)c2ccc(Cl)cc2)c1)c1ccccc1 | inactive |

| SMILES | fluorescence ratio, lower = inhibition |
| --- | --- |
| CC(C)n1c(-c2ccco2)n[nH]c1=S | inactive |
| O=C(Nc1cccc(NC(=O)c2ccc(C(F)(F)F)cc2)c1)c1ccccc1 | inactive |
| CCOc1ccccc1NC(=O)c1cccc(NC(=O)c2ccccc2)c1 | inactive |
| COc1ccccc1NC(=O)c1cccc(NC(=O)c2ccccc2)c1 | inactive |
| CN(C)c1ccc(C(=O)Nc2cccc(NC(=O)c3ccccc3)c2)cc1 | inactive |
| CC(C1CC2CCC1C2)n1c(-c2ccsc2)n[nH]c1=S (centres undefined) | inactive |
| Cc1cccc(C(=O)Nc2cccc(NC(=O)C3CCCCC3)c2)c1 | inactive |
| O=C(Nc1cccc(NC(=O)c2cccc(Cl)c2)c1)c1ccccc1 | inactive |
| Cc1cccc(C(=O)Nc2cccc(NC(=O)c3ccccc3C(F)(F)F)c2)c1 | inactive |
| O=C(Nc1cccc(NC(=O)c2ccoc2)c1)c1ccccc1 | inactive |
| CCOc1ccccc1NC(=O)c1cccc(NC(=O)c2ccccc2OC(F)(F)F)c1 | inactive |
| COc1ccccc1C(=O)Nc1cccc(NC(=O)c2ccccc2OC(F)(F)F)c1 | inactive |
| CC(C1CC2CCC1C2)n1c(-c2ccoc2)n[nH]c1=S (centres undefined) | inactive |
| Cc1ccc(C(=O)Nc2cccc(NC(=O)c3ccccc3)c2)cc1 | inactive |
| CCOc1ccccc1NC(=O)c1cccc(NC(=O)c2cccc(C)c2)c1 | inactive |
| Cc1cccc(C(=O)Nc2cccc(NC(=O)c3ccccc3C(C)C)c2)c1 | inactive |
| COc1cccc(C(=O)Nc2cccc(NC(=O)c3cccc(C)c3)c2)c1 | inactive |
| CCOc1ccc(NC(=O)c2cccc(NC(=O)C3CCCC3)c2)cc1 | inactive |
| COc1ccccc1C(=O)Nc1cccc(NC(=O)c2cccc(C)c2)c1 | inactive |
| O=C(Nc1cccc(NC(=O)c2cccnc2)c1)c1ccccc1 | inactive |
| O=C(Nc1cccc(NC(=O)c2ccncc2)c1)c1ccccc1 | inactive |
| CCOc1ccccc1NC(=O)c1cccc(NC(=O)c2ccccc2C)c1 | inactive |
| Cc1ccc(-c2n[nH]c(=S)n2C(C)C2CC3CCC2C3)cc1 (centres undefined) | inactive |

| SMILES | fluorescence ratio, lower = inhibition |
| --- | --- |
| Cc1cccc(C(=O)Nc2cccc(NC(=O)c3ccccc3OCC(C)C)c2)c1 | inactive |
| CCOc1ccccc1C(=O)Nc1cccc(NC(=O)C2CCCC2)c1 | inactive |
| CCOc1ccccc1C(=O)Nc1cccc(NC(=O)c2cccc(C)c2)c1 | inactive |
| CCOc1ccccc1NC(=O)c1cccc(NC(=O)c2ccc(Cl)cc2)c1 | inactive |
| Cc1cccc(C(=O)Nc2cccc(NC(=O)c3ccccc3Cl)c2)c1 | inactive |
| CC(c1ccccc1)n1c(-c2ccco2)n[nH]c1=S (centres undefined) | inactive |
| Cc1cccc(C(=O)Nc2cccc(NC(=O)c3ccc(C(F)(F)F)cc3)c2)c1 | inactive |
| O=C(Nc1ccccc1Cl)c1cccc(NC(=O)C2CCCC2)c1 | inactive |
| Cc1cccc(-c2n[nH]c(=S)n2C(C)C2CC3CCC2C3)c1 (centres undefined) | inactive |
| CCOc1ccccc1NC(=O)c1cccc(NC(=O)C2CCCO2)c1 (centres undefined) | inactive |
| COc1ccccc1NC(=O)c1cccc(NC(=O)CC2CCCC2)c1 | inactive |
| O=C(Nc1cccc(NC(=O)c2cccc(C(F)(F)F)c2)c1)c1ccccc1 | inactive |
| O=C(Nc1cccc(NC(=O)c2ccccn2)c1)c1ccccc1 | inactive |
| COc1ccc(-c2n[nH]c(=S)n2C(C)C2CC3CCC2C3)cc1 (centres undefined) | inactive |
| O=C(Nc1cccc(NC(=O)c2ccccc2)c1)c1ccccc1 | inactive |
| COc1cccc(OC)c1C(=O)Nc1cccc(NC(=O)c2cccc(C)c2)c1 | inactive |
| Cc1cccc(C(=O)Nc2cccc(NC(=O)c3ccc(Cl)cc3)c2)c1 | inactive |
| CCOc1ccccc1NC(=O)c1cccc(NC(=O)C(C)(C)C)c1 | inactive |
| O=C(Nc1cccc(NC(=O)c2cccs2)c1)c1ccccc1 | inactive |
| COc1ccccc1NC(=O)c1cccc(NC(=O)C2CCCCC2)c1 | inactive |
| COc1ccc(C(=O)Nc2cccc(NC(=O)c3cccc(C)c3)c2)cc1 | inactive |
| Cc1cccc(C(=O)Nc2cccc(NC(=O)c3cccc(C(F)(F)F)c3)c2)c1 | inactive |
| COc1ccc(C(=O)Nc2cccc(NC(=O)c3ccccc3)c2)cc1 | inactive |

Same assay, conditions: hERG-expressing cells, FluxOR thallium flux fluorescence; test wells contain dofetilide at its IC70

| SMILES | IC50 [µM] |
| --- | --- |
| Cc1cccc(C(=O)Nc2cccc(NC(=O)c3ccccc3)c2)c1 | 8.08 |
| Cc1cccc(C(=O)Nc2cccc(NC(=O)c3cccc(C)c3)c2)c1 | 12.4 |
